Experimental data from ChEMBL document CHEMBL5032507, “Selective Pseudo-irreversible Butyrylcholinesterase Inhibitors Transferring Antioxidant Moieties to the Enzyme Show Pronounced Neuroprotective Efficacy In Vitro and In Vivo in an Alzheimer's Disease Mouse Model” (J Med Chem, 2021).
pIC50: −log10 of the molar value. Calls of active or inactive are those of the source. The rule behind the calls is not given here.

What was measured:
N9 [1] = test: Immunomodulatory activity in mouse N9 microglial cells assessed as reduction in LPS-induced nitrite accumulation at 2.5 to 5 uM incubated for 24 hrs by Griess reagent based colorimetry assay; type: functional, cell-based; settings: dose 2.5-5 µM
[2] = Metal chelating activity assessed as compound-Cu2+ complex formation at ratio of 10:1 incubated for 2 mins followed by pyrocatechol violet addition and further incubated for 10 mins in dark by absorbance based assay; settings: time 12.0 min
[3] = Neurotoxicity in mouse HT-22 cells assessed as reduction in cell viability at 25 uM incubated for 24 hrs by MTT assay; type: cell-based; settings: ht-22, 24 h
HT-22 [4] = test: Neuroprotective activity against glutamate induced-oxidative stress in mouse HT-22 cells assessed as cell viability at 1 to 25 uM incubated for 24 hrs by MTT assay; type: functional, cell-based; settings: dose 1-25 µM
N9 [5] = test: Immunomodulatory activity in mouse N9 microglial cells assessed as reduction in LPS-induced IL-1beta release at 2.5 to 5 uM incubated for 24 hrs by Western blot analysis; type: functional, cell-based; settings: dose 2.5-5 µM
[6] = Metal chelating activity assessed as Fe2+ -ferrozoine complex formation at ratio of 10:1 incubated for 2 mins followed by ferrozine addition and further incubated for 10 mins by absorbance based assay; settings: time 12.0 min
N9 [7] = test: Immunomodulatory activity in mouse N9 microglial cells assessed as reduction in LPS-induced iNOS expression at 2.5 to 5 uM incubated for 24 hrs by Western blot analysis; type: functional, cell-based; settings: dose 2.5-5 µM
N9 [8] = test: Immunomodulatory activity in mouse N9 microglial cells assessed as reduction in LPS-induced iNOS expression at 0.1 to 5 uM incubated for 24 hrs by Western blot analysis; type: functional, cell-based; settings: dose 0.1-5 µM
HT-22 [9] = test: Neuroprotective activity against glutamate induced-oxidative stress in mouse HT-22 cells assessed as cell viability at 10 uM incubated for 24 hrs by MTT assay; type: functional, cell-based
Mus musculus [10] = test: Anti-alzheimer activity against amyloid beta 25-35 induced learning impairments in Swiss mouse assessed as latency to enter dark compartment at 0.3 mg/kg, ip administered once daily for 7 days and measured on day 8 by passive avoidance test; type: functional, organism-based; settings: time 7.0 day
Cholinesterase [11] = biological target: T1, Cholinesterase (Homo sapiens, UniProt P06276); test: Inhibition of human BChE using butyrylthiocholine iodide as substrate incubated for 20 mins followed by substrate addition by Ellman's method; settings: for pIC50: read-out: IC50; for IC50: read-out: pIC50 (converted)
T1 sequence (P06276 whole entry): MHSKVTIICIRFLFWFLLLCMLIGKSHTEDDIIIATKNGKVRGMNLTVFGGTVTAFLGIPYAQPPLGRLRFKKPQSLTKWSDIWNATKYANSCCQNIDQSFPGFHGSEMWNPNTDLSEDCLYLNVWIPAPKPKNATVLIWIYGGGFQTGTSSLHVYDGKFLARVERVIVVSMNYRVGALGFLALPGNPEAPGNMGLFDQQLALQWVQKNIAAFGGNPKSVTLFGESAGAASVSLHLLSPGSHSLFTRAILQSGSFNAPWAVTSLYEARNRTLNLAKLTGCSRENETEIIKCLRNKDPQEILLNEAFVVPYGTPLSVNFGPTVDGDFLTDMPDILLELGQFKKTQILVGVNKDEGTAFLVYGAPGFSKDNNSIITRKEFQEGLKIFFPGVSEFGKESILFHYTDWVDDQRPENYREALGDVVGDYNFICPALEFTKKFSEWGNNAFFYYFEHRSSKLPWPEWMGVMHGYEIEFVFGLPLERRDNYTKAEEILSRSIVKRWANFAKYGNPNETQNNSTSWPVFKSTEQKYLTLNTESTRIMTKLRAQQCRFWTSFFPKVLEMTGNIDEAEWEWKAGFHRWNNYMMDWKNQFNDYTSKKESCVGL

N9 [12] = test: Immunomodulatory activity in mouse N9 microglial cells assessed as reduction in LPS-induced nitrite accumulation at 0.1 to 5 uM incubated for 24 hrs by Griess reagent based colorimetry assay; type: functional, cell-based; settings: dose 0.1-5 µM
N9 [13] = test: Immunomodulatory activity in mouse N9 microglial cells assessed as reduction in LPS-induced IL-1beta release at 0.1 to 5 uM incubated for 24 hrs by Western blot analysis; type: functional, cell-based; settings: dose 0.1-5 µM
N9 [14] = test: Immunomodulatory activity in mouse N9 microglial cells assessed as increase in LPS-induced TREM2 expression at 2.5 to 5 uM incubated for 24 hrs by Western blot analysis; type: functional, cell-based; settings: dose 2.5-5 µM
[15] = Toxicity in Swiss mouse assessed as change in weight gain at 0.1 to 3 mg/kg, ip administered for 7 days; type: organism-based; settings: in vivo, 168 h, dose 0.1-3 mg/kg, time 7 day
[16] = Toxicity in Swiss mouse assessed as change in normal behaviour at 0.1 to 3 mg/kg, ip administered for 7 days; type: organism-based; settings: in vivo, 168 h, dose 0.1-3 mg/kg, time 7 day
[17] = biological target: Acetylcholinesterase (Homo sapiens) (UniProt P22303); test: Inhibition of human AChE using acetylthiocholine iodide as substrate at 10 uM incubated for 20 mins followed by substrate addition by Ellman's method relative to control
Sequence of Acetylcholinesterase (Homo sapiens) (P22303 whole entry): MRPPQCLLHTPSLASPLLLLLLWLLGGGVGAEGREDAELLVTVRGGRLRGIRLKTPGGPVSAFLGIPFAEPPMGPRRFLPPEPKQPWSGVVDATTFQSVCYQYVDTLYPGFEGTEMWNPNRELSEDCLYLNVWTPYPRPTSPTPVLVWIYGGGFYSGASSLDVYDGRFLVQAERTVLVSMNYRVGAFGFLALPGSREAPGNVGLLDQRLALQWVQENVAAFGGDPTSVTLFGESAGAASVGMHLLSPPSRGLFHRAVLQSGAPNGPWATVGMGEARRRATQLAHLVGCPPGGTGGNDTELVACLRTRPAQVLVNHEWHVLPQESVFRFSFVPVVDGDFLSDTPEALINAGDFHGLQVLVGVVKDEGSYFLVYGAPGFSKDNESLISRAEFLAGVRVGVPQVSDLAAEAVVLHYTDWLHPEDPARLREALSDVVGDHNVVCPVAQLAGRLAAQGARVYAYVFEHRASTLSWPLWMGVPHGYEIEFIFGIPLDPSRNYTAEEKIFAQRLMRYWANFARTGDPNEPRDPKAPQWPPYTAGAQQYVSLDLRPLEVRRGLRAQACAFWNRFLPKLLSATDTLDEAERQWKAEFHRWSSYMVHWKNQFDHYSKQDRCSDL

Cholinesterase [18] = biological target: T1, Cholinesterase
Description: Binding affinity to human serum BChE assessed as half life

Mus musculus [19] = test: Anti-alzheimer activity against amyloid beta 25-35 induced learning impairments in Swiss mouse assessed as increase in spontaneous alteration performance by measuring total number of arm entries at 1 mg/kg, ip administered once daily for 7 days and measured on day 8 by Y-maze test; type: functional, organism-based; settings: time 7.0 day
Mus musculus [20] = test: Anti-alzheimer activity against amyloid beta 25-35 induced learning impairments in wild type 129 SV mouse assessed as increase in latency to enter dark compartment at 0.3 mg/kg, ip administered once daily for 7 days and measured on day 9 by passive avoidance test; type: functional, organism-based; settings: time 7.0 day
Mus musculus [21] = test: Anti-alzheimer activity against amyloid beta 25-35 induced learning impairments in BChE KO mouse assessed as increase in latency to enter dark compartment at 0.3 mg/kg, ip administered once daily for 7 days and measured on day 9 by passive avoidance test; type: functional, organism-based; settings: time 7.0 day
Mus musculus [22] = test: Anti-alzheimer activity against amyloid beta 25-35 induced learning impairments in Swiss mouse assessed as increase in spontaneous alteration performance by measuring total number of arm entries at 0.3 to 1 mg/kg, ip administered once daily for 7 days and measured on day 8 by Y-maze test; type: functional, organism-based; settings: dose 0.3-1 mg/kg, time 7.0 day
Mus musculus [23] = test: Anti-alzheimer activity against amyloid beta 25-35 induced learning impairments in wild type 129 SV mouse assessed as increase in spontaneous alternation performance by measuring total number of arm entries at 0.3 mg/kg, ip administered once daily for 7 days and measured on day 8 by Y-maze test; type: functional, organism-based; settings: time 7.0 day
Mus musculus [24] = test: Anti-alzheimer activity against amyloid beta 25-35 induced learning impairments in BChE KO mouse assessed as memory deficit in alternation performance by measuring total number of arm entries at 0.3 mg/kg, ip qd administered for 7 days and measured on day 8 by Y-maze test; type: functional, organism-based; settings: time 7.0 day
Mus musculus [25] = test: Anti-alzheimer activity against amyloid beta 25-35 induced learning impairments in Swiss mouse assessed as latency to enter dark compartment at 0.1 mg/kg, ip administered once daily for 7 days and measured on day 8 by passive avoidance test; type: functional, organism-based; settings: time 7.0 day
HT-22 [26] = test: Neuroprotective activity against glutamate induced-oxidative stress in mouse HT-22 cells assessed as cell viability at 5 uM incubated for 24 hrs by MTT assay; type: functional, cell-based
N9 [27] = test: Immunomodulatory activity in mouse N9 microglial cells assessed as reduction in LPS-induced IL-1beta release at 0.5 to 5 uM incubated for 24 hrs by Western blot analysis; type: functional, cell-based; settings: dose 0.5-5 µM

## COc1ccc2[nH]cc(CCNC(C)=O)c2c1 [MELATONIN]
N9 [1]
  Activity: inactive
[2]
  Activity: inactive
[3]
  Activity: Non-Toxic
HT-22 [4]
  Activity: inactive
N9 [5]
  Activity: inactive
[6]
  Activity: inactive
N9 [7]
  Activity: inactive

## COc1cc(/C=C/C(=O)NCCCCNC(=O)Oc2ccc3c(c2)CN2CCc4ccccc4C2N3C)ccc1O (stereo not given)
N9 [8]
  Activity: Active
HT-22 [9]
  Activity: Active
Mus musculus [10]
  Activity: Active
Cholinesterase [11]
  pIC50: 6.81
  IC50: 115 nM
N9 [12]
  Activity: Active
[2]
  Activity: inactive
[3]
  Activity: Non-Toxic
N9 [13]
  Activity: Active
N9 [14]
  Activity: Active
[15]
  Activity: Non-Toxic
[16]
  Activity: Non-Toxic
[17]
  inhibition: 7.7%
[6]
  Activity: inactive
Cholinesterase [18]
  T1/2: 2.4 h
Mus musculus [19]
  Activity: Active

## CN1c2ccc(OC(=O)NCCCCNC(=O)/C=C/c3ccccc3)cc2CN2CCc3ccccc3C21 (stereo not given)
Cholinesterase [11]
  pIC50: 6.66
[17]
  inhibition: 6.1%

## COc1ccc2[nH]cc(CCNC(=O)CCCCNC(=O)Oc3ccc4c(c3)CN3CCc5ccccc5C3N4C)c2c1 (stereo not given)
Cholinesterase [11]
  pIC50: 6.90
[17]
  inhibition: 15%

## COc1ccc2[nH]cc(CCNC(=O)CCCCCCNC(=O)Oc3ccc4c(c3)CN3CCc5ccccc5C3N4C)c2c1 (stereo not given)
N9 [8]
  Activity: Active
Mus musculus [20]
  Activity: Active
Cholinesterase [11]
  pIC50: 6.99
  IC50: 204 nM
Mus musculus [21]
  Activity: inactive
N9 [12]
  Activity: Active
[2]
  Activity: inactive
Mus musculus [22]
  Activity: Active
[3]
  Activity: Non-Toxic
Mus musculus [23]
  Activity: Active
Mus musculus [24]
  Activity: inactive
Mus musculus [25]
  Activity: Active
HT-22 [26]
  Activity: Active
N9 [14]
  Activity: Active
[15]
  Activity: Non-Toxic
[16]
  Activity: Non-Toxic
N9 [27]
  Activity: Active
[17]
  inhibition: 6.5%
[6]
  Activity: inactive
Cholinesterase [18]
  T1/2: 3 h

## COc1cc(/C=C/C(=O)NCCCCCCNC(=O)Oc2ccc3c(c2)CN2CCc4ccccc4C2N3C)ccc1O (stereo not given)
Cholinesterase [11]
  pIC50: 6.78
[17]
  inhibition: 20%

## Cc1c(C)c2c(c(C)c1O)CCC(C)(C(=O)NCCCCCCNC(=O)Oc1ccc3c(c1)CN1CCc4ccccc4C1N3C)O2 (stereo not given)
Cholinesterase [11]
  pIC50: 6.59
  IC50: 9330 nM
[17]
  inhibition: 24.1%

## COc1ccc2[nH]cc(CCNC(=O)CCNC(=O)Oc3ccc4c(c3)CN3CCc5ccccc5C3N4C)c2c1 (stereo not given)
Cholinesterase [11]
  pIC50: 6.32
[17]
  inhibition: 2.3%

## COc1cc(/C=C/C(=O)O)ccc1O [FERULATE]
N9 [1]
  Activity: inactive
[2]
  Activity: inactive
[3]
  Activity: Non-Toxic
HT-22 [4]
  Activity: inactive
N9 [5]
  Activity: inactive
[6]
  Activity: inactive
N9 [7]
  Activity: inactive

## CN1c2ccc(OC(=O)NCCCCCCNC(=O)/C=C/c3ccccc3)cc2CN2CCc3ccccc3C21 (stereo not given)
Cholinesterase [11]
  pIC50: 6.35
[17]
  inhibition: 37.5%

## Cc1c(C)c2c(c(C)c1O)CCC(C)(C(=O)NCCCCNC(=O)Oc1ccc3c(c1)CN1CCc4ccccc4C1N3C)O2 (stereo not given)
Cholinesterase [11]
  pIC50: 6.10
[17]
  inhibition: 15.2%
